Measured values: the supplement of paper PMC10307832

What was measured:
Assay in all cases: relative viability (nuclei count vs DMSO), 5 days (fraction); higher = more cells survive
LC-2-ad = tested on: LC-2-ad
Outline: (§1)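 A single step with final 0.05% Triton X-100, 1% formaldehyde and 1 ug/ml Hoechst fixed the cells and stained nuclei 5 days after treatment. Lung cancer cell lines in 1536-well plates had been treated by pin tool the day after seeding with one drug alone or a fixed anchor-drug dose plus five library-drug doses (not always all listed) in √10 steps, and nuclei were counted on 4× images. Relative viability is the ratio of nuclei in treated wells to nuclei in vehicle wells, taken as the median of duplicate plates.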

EKVX = tested on: EKVX
Outline: as §1

NCI-H1395 = tested on: NCI-H1395
Outline: as §1

NCI-H2347 = tested on: NCI-H2347
Outline: as §1

NCI-H2228 = tested on: NCI-H2228
Outline: as §1

NCI-H1651 = tested on: NCI-H1651
Outline: as §1

LXF-289 = tested on: LXF-289
Outline: as §1

CAL-12T = tested on: CAL-12T
Outline: as §1

H3255 = tested on: H3255
Outline: as §1

NCI-H2087 = tested on: NCI-H2087
Outline: as §1

SK-LU-1 = tested on: SK-LU-1
Outline: as §1

NCI-H1793 = tested on: NCI-H1793
Outline: as §1

NCI-H1915 = tested on: NCI-H1915
Outline: as §1

NCI-H1755 = tested on: NCI-H1755
Outline: as §1

COR-L 105 = tested on: COR-L 105
Outline: as §1

NCI-H1944 = tested on: NCI-H1944
Outline: as §1

NCI-H2085 = tested on: NCI-H2085
Outline: as §1

NCI-H1437 = tested on: NCI-H1437
Outline: as §1

LK-2 = tested on: LK-2
Outline: as §1

NCI-H661 = tested on: NCI-H661
Outline: as §1

SK-MES-1 = tested on: SK-MES-1
Outline: as §1

PC-3 [JPC-3] = tested on: PC-3 [JPC-3]
Outline: as §1

EMC-BAC-2 = tested on: EMC-BAC-2
Outline: as §1

Cc1cnc(-c2cnc(NCCNc3ccc(C#N)cn3)nc2-c2ccc(Cl)cc2Cl)[nH]1 + O=C(c1cc(Cc2n[nH]c(=O)c3ccccc23)ccc1F)N1CCN(C(=O)C2CC2)CC1 [Olaparib] (partner 8 µM)
relative viability (LC-2-ad; first compound 0.08 µM): 0.657
relative viability (LC-2-ad; first compound 0.8 µM): 0.73
relative viability (LC-2-ad; first compound 2.53 µM): 0.645
relative viability (EKVX; first compound 0.08 µM): 0.939
relative viability (EKVX; first compound 0.253 µM): 0.814
relative viability (EKVX; first compound 0.8 µM): 0.715
relative viability (EKVX; first compound 2.53 µM): 0.85
relative viability (NCI-H1395; first compound 0.08 µM): 0.496
relative viability (NCI-H1395; first compound 0.253 µM): 0.435
relative viability (NCI-H1395; first compound 0.8 µM): 0.504
relative viability (NCI-H1395; first compound 2.53 µM): 0.47
relative viability (NCI-H2347; first compound 0.08 µM): 0.623
relative viability (NCI-H2347; first compound 0.253 µM): 0.495
relative viability (NCI-H2347; first compound 0.8 µM): 0.663
relative viability (NCI-H2347; first compound 2.53 µM): 0.587
relative viability (NCI-H2228; first compound 0.08 µM): 0.56
relative viability (NCI-H2228; first compound 0.253 µM): 0.332
relative viability (NCI-H2228; first compound 0.8 µM): 0.732
relative viability (NCI-H2228; first compound 2.53 µM): 0.419
relative viability (NCI-H1651; first compound 0.08 µM): 0.175
relative viability (NCI-H1651; first compound 0.253 µM): 0.192
relative viability (NCI-H1651; first compound 0.8 µM): 0.2
relative viability (NCI-H1651; first compound 2.53 µM): 0.182
relative viability (LXF-289; first compound 0.08 µM): 1.04
relative viability (LXF-289; first compound 0.253 µM): 1
relative viability (LXF-289; first compound 0.8 µM): 1.11
relative viability (LXF-289; first compound 2.53 µM): 1.11
relative viability (CAL-12T; first compound 0.08 µM): 0.686
relative viability (CAL-12T; first compound 0.253 µM): 0.698
relative viability (CAL-12T; first compound 0.8 µM): 0.802
relative viability (CAL-12T; first compound 2.53 µM): 0.756
relative viability (H3255; first compound 0.08 µM): 0.585
relative viability (H3255; first compound 0.253 µM): 0.543
relative viability (H3255; first compound 0.8 µM): 0.542
relative viability (H3255; first compound 2.53 µM): 0.563
relative viability (NCI-H2087; first compound 0.08 µM): 0.671
relative viability (NCI-H2087; first compound 0.8 µM): 0.635
relative viability (NCI-H2087; first compound 2.53 µM): 0.459
relative viability (SK-LU-1; first compound 0.08 µM): 0.455
relative viability (SK-LU-1; first compound 0.253 µM): 0.479
relative viability (SK-LU-1; first compound 0.8 µM): 0.463
relative viability (SK-LU-1; first compound 2.53 µM): 0.472
relative viability (NCI-H1793; first compound 0.08 µM): 1.01
relative viability (NCI-H1793; first compound 0.253 µM): 0.755
relative viability (NCI-H1793; first compound 0.8 µM): 0.957
relative viability (NCI-H1793; first compound 2.53 µM): 0.867
relative viability (NCI-H1915; first compound 0.08 µM): 0.253
relative viability (NCI-H1915; first compound 0.8 µM): 0.264
relative viability (NCI-H1915; first compound 2.53 µM): 0.239
relative viability (NCI-H1755; first compound 0.08 µM): 0.941
relative viability (NCI-H1755; first compound 0.253 µM): 0.819
relative viability (NCI-H1755; first compound 0.8 µM): 0.804
relative viability (NCI-H1755; first compound 2.53 µM): 0.869
relative viability (COR-L 105; first compound 0.08 µM): 0.734
relative viability (COR-L 105; first compound 0.253 µM): 0.711
relative viability (COR-L 105; first compound 0.8 µM): 0.642
relative viability (COR-L 105; first compound 2.53 µM): 0.691
relative viability (NCI-H1944; first compound 0.08 µM): 0.446
relative viability (NCI-H1944; first compound 0.8 µM): 0.42
relative viability (NCI-H1944; first compound 2.53 µM): 0.413
relative viability (NCI-H2085; first compound 0.08 µM): 0.804
relative viability (NCI-H2085; first compound 0.253 µM): 0.792
relative viability (NCI-H2085; first compound 0.8 µM): 0.711
relative viability (NCI-H2085; first compound 2.53 µM): 0.79
relative viability (NCI-H1437; first compound 0.08 µM): 0.605
relative viability (NCI-H1437; first compound 0.253 µM): 0.606
relative viability (NCI-H1437; first compound 0.8 µM): 0.596
relative viability (NCI-H1437; first compound 2.53 µM): 0.598
relative viability (LK-2; first compound 0.08 µM): 0.728
relative viability (LK-2; first compound 0.253 µM): 0.543
relative viability (LK-2; first compound 0.8 µM): 0.611
relative viability (LK-2; first compound 2.53 µM): 0.78
relative viability (NCI-H661; first compound 0.08 µM): 0.736
relative viability (NCI-H661; first compound 0.253 µM): 0.759
relative viability (NCI-H661; first compound 0.8 µM): 0.7
relative viability (NCI-H661; first compound 2.53 µM): 0.654
relative viability (SK-MES-1; first compound 0.08 µM): 0.734
relative viability (SK-MES-1; first compound 0.253 µM): 0.704
relative viability (SK-MES-1; first compound 0.8 µM): 0.738
relative viability (SK-MES-1; first compound 2.53 µM): 0.762
relative viability (PC-3 [JPC-3]; first compound 0.08 µM): 1.1
relative viability (PC-3 [JPC-3]; first compound 0.253 µM): 1.08
relative viability (PC-3 [JPC-3]; first compound 0.8 µM): 1.09
relative viability (PC-3 [JPC-3]; first compound 2.53 µM): 1.04
relative viability (EMC-BAC-2; first compound 0.08 µM): 0.498
relative viability (EMC-BAC-2; first compound 0.253 µM): 0.466
relative viability (EMC-BAC-2; first compound 0.8 µM): 0.504
relative viability (EMC-BAC-2; first compound 2.53 µM): 0.397
